Assays:
[1] = molecular target: immunoproteasome LMP7/B5i subunit (Homo sapiens, UniProt P20618+P28062); assay: Caliper-based proteasome enzymatic activity assay, LMP7; format: biochemical; conditions: human recombinant immunoproteasome 0.3 nM, FAM-peptide substrate 1 μM, 3 h at rt
Description: (§1) A Caliper-based proteasome assay (Caliper Life Sciences, Hopkinton, Mass.) was used to measure inhibition of the immunoproteasome LMP7/B5i subunit, the immunoproteasome LPM2/β1i subunit, and the constitutive proteasome β5c unit for a compound of Formula (I). For LMP7 and β5c, serial dilutions of test compounds were incubated with either human recombinant immunoprotcasome or constitutive proteasome (0.3 nM enzyme) and a carboxyfluorescein (FAM)-labeled peptide substrate FAM-TYETFKSIMKKSPF-NH2 (1 μM) at it for 3 h. The reaction was then terminated with a buffer containing the known proteasome inhibitor carfilzomib at a concentration of 5 uM. For LMP2, serial dilutions of test compounds were incubated with human recombinant immunoproteasome proteasome (0.3 nM enzyme) and a carboxyfluorescein (FAM)-labeled peptide substrate FAM-[…]-NH2 (1 μM) at rt for 2 h. The reaction was then terminated with a buffer containing the known proteasome inhibitor ixazomib at a concentration of 6.7 uM. The reaction buffer was 20 mM Hepes pH 7.4, 0.01% bovine serum albumin, 0.015% SDS, 0.5 mM EDTA, 1%0/DMSO. The peptide cleavage reaction product was quantified on a Caliper LabChip 3000. Percent inhibition was calculated for each compound dilution and the concentration that produced 50% inhibition was calculated. This value is presented as the IC50.

[2] = molecular target: constitutive proteasome β5c unit (Homo sapiens, UniProt P20618+P28074); assay: Caliper-based proteasome enzymatic activity assay, β5c; format: biochemical; conditions: human recombinant constitutive proteasome 0.3 nM, FAM-peptide substrate 1 μM, 3 h at rt; read-out: β5c subunit IC50
Description: as §1

SMILES	IC50 [1] [nM]	IC50 [2] [nM]
C=CC(=O)N1C[C@@H]2C[C@@H]2[C@@H]1COC(=O)N[C@@H](Cc1ccccc1)B(O)O [Example 99, ((R)-1-(((((1S,2R,5R)-3-acryloyl-3-azabicyclo[3.1.0]hexan-2-yl)methoxy)carbonyl)amino)-2-phenylethyl)boronic acid]	68	1990
C=CC(=O)N1C[C@@H](F)C[C@@H]1COC(=O)N[C@@H](Cc1ccccc1)B(O)O [Example 100, ((R)-1-(((((2R,4S)-1-acryloyl-4-fluoropyrrolidin-2-yl)methoxy)carbonyl)amino)-2-phenylethyl)boronic acid]	21	530
CC(C)(/C=C(/C#N)C(=O)N1CCCC[C@@H]1COC(=O)N[C@@H](Cc1ccccc1)B(O)O)N1CCC(F)(F)C1 [Example 103, ((R)-1-(((((R)-1-((Z)-2-cyano-4-(3,3-difluoropyrrolidin-1-yl)-4-methylpent-2-enoyl)piperidin-2-yl)methoxy)carbonyl)amino)-2-phenylethyl)boronic acid]	5.3	2310
CC(C)(C=C(C#N)C(=O)N1CCCC[C@@H]1COC(=O)N[C@@H](Cc1cccc2ccccc12)B(O)O)N1CCC(F)(F)C1 [Example 106, ((R)-1-(((((R)-1-(2-cyano-4-(3,3-difluoropyrrolidin-1-yl)-4-methylpent-2-enoyl)piperidin-2-yl)methoxy)carbonyl)amino)-2-(naphthalen-1-yl)ethyl)boronic acid]	5.2	2240
CC(C)(C=C(C#N)C(=O)N1CCCC[C@@H]1COC(=O)N[C@@H](Cc1ccccc1C#N)B(O)O)N1CCC(F)(F)C1 [Example 107, ((R)-1-(((((R)-1-(2-cyano-4-(3,3-difluoropyrrolidin-1-yl)-4-methylpent-2-enoyl)piperidin-2-yl)methoxy)carbonyl)amino)-2-(2-cyanophenyl)ethyl)boronic acid]	111	> 5000
C=CC(=O)N1C[C@@H]2C[C@@H]2[C@@H]1COC(=O)N[C@@H](Cc1ccc(F)cc1)B(O)O [Example 109, ((R)-1-(((((1S,2R,5R)-3-acryloyl-3-azabicyclo[3.1.0]hexan-2-yl)methoxy)carbonyl)amino)-2-(4-fluorophenyl)ethyl)boronic acid]	6.4	3320
CC(C)(C=C(C#N)C(=O)N1CCCC[C@@H]1COC(=O)N[C@@H](Cc1ccccc1C(F)(F)F)B(O)O)N1CCC(F)(F)C1 [Example 110, ((R)-1-(((((R)-1-(2-cyano-4-(3,3-difluoropyrrolidin-1-yl)-4-methylpent-2-enoyl)piperidin-2-yl)methoxy)carbonyl)amino)-2-(2-(trifluoromethyl)phenyl)ethyl)boronic acid]	22	> 5000
C=CC(=O)N1CCS(=O)(=O)C[C@@H]1COC(=O)N[C@@H](Cc1coc2ccccc12)B(O)O [Example 111]	4.2	90
CC(C)(C=C(C#N)C(=O)N1CCCC[C@@H]1COC(=O)N[C@@H](Cc1ccc(F)cc1F)B(O)O)N1CCC(F)(F)C1 [Example 113, ((R)-1-(((((R)-1-(2-cyano-4-(3,3-difluoropyrrolidin-1-yl)-4-methylpent-2-enoyl)piperidin-2-yl)methoxy)carbonyl)amino)-2-(2,4-difluorophenyl)ethyl)boronic acid]	> 5000	> 5000
Cc1ccc(C[C@H](NC(=O)OC[C@H]2[C@H]3C[C@H]3CN2C(=O)C(C#N)=CC(C)(C)N2CCC(F)(F)C2)B(O)O)cc1 [Example 116, ((R)-1-(((((1S,2R,5R)-3-(2-cyano-4-(3,3-difluoropyrrolidin-1-yl)-4-methylpent-2-enoyl)-3-azabicyclo[3.1.0]hexan-2-yl)methoxy)carbonyl)amino)-2-(p-tolyl)ethyl)boronic acid]	62	> 5000
CC1(C=C(C#N)C(=O)N2C[C@@H]3C[C@@H]3[C@@H]2COC(=O)N[C@@H](Cc2ccc(F)cc2)B(O)O)CCOCC1 [Example 119, ((R)-1-(((((1S,2R,5R)-3-(2-cyano-3-(4-methyltetrahydro-2H-pyran-4-yl)acryloyl)-3-azabicyclo[3.1.0]hexan-2-yl)methoxy)carbonyl)amino)-2-(4-fluorophenyl)ethyl)boronic acid]	> 5000	> 5000
CC(C)(C=C(C#N)C(=O)N1CCC[C@]1(C)COC(=O)N[C@@H](Cc1ccc(F)cc1)B(O)O)N1CCC(F)(F)C1 [Example 120, ((R)-1-(((((R)-1-(2-cyano-4-(3,3-difluoropyrrolidin-1-yl)-4-methylpent-2-enoyl)-2-methylpyrrolidin-2-yl)methoxy)carbonyl)amino)-2-(4-fluorophenyl)ethyl)boronic acid]	530	> 5000
CC(C)(C=C(C#N)C(=O)N1C[C@@H]2C[C@@H]2[C@@H]1COC(=O)N[C@@H](Cc1ccc(F)cc1)B(O)O)N1CCOCC1 [Example 123, ((R)-1-(((((1S,2R,5R)-3-(2-cyano-4-methyl-4-morpholinopent-2-enoyl)-3-azabicyclo[3.1.0]hexan-2-yl)methoxy)carbonyl)amino)-2-(4-fluorophenyl)ethyl)boronic acid]	550	> 5000

Now those with a lower IC50 [1], led by results:

IC50 [1] [nM]	IC50 [2] [nM]	SMILES
3.5	3270	CC(C)(C=C(C#N)C(=O)N1CCOC[C@@H]1COC(=O)N[C@@H](CCc1ccccc1)B(O)O)N1CCC(F)(F)C1 [Example 98, ((R)-1-(((((R)-4-(2-cyano-4-(3,3-difluoropyrrolidin-1-yl)-4-methylpent-2-enoyl)morpholin-3-yl)methoxy)carbonyl)amino)-3-phenylpropyl)boronic acid]
1.7	> 5000	CC(C)(C=C(C#N)C(=O)N1CCCC[C@@H]1COC(=O)N[C@@H](CCc1ccccc1)B(O)O)N1CCC(F)(F)C1 [Example 101, ((R)-1-(((((R)-1-(2-cyano-4-(3,3-difluoropyrrolidin-1-yl)-4-methylpent-2-enoyl)piperidin-2-yl)methoxy)carbonyl)amino)-3-phenylpropyl)boronic acid]
1.4	> 5000	CC(C)(C=C(C#N)C(=O)N1C[C@@H]2C[C@@H]2[C@@H]1COC(=O)N[C@@H](CCc1ccccc1)B(O)O)N1CCC(F)(F)C1 [Example 104, ((R)-1-(((((1S,2R,5R)-3-(2-cyano-4-(3,3-difluoropyrrolidin-1-yl)-4-methylpent-2-enoyl)-3-azabicyclo[3.1.0]hexan-2-yl)methoxy)carbonyl)amino)-3-phenylpropyl)boronic acid]
0.9	830	CC(C)(C=C(C#N)C(=O)N1C[C@@H]2C[C@@H]2[C@@H]1COC(=O)N[C@@H](Cc1ccc(F)cc1)B(O)O)N1CCC(F)(F)C1 [Example 108]
2.5	95	C=CC(=O)N1CCC(F)(F)C[C@@H]1COC(=O)N[C@@H](Cc1coc2ccccc12)B(O)O [Example 112, ((R)-1-(((((R)-1-acryloyl-4,4-difluoropiperidin-2-yl)methoxy)carbonyl)amino)-2-(benzofuran-3-yl)ethyl)boronic acid]
2.3	2540	CC(C)(C=C(C#N)C(=O)N1C[C@@H]2C[C@@H]2[C@@H]1COC(=O)N[C@@H](Cc1ccc(C(F)(F)F)cc1)B(O)O)N1CCOCC1 [Example 114]
2.6	2930	C=CC(=O)N1C[C@@H]2C[C@@H]2[C@@H]1COC(=O)N[C@@H](Cc1ccc(C(F)(F)F)cc1)B(O)O [Example 115, ((R)-1-(((((1S,2R,5R)-3-acryloyl-3-azabicyclo[3.1.0]hexan-2-yl)methoxy)carbonyl)amino)-2-(4-(trifluoromethyl)phenyl)ethyl)boronic acid]
0.8	640	CC(C)(C=C(C#N)C(=O)N1CCC[C@]1(C)COC(=O)N[C@@H](Cc1coc2ccccc12)B(O)O)N1CCC(F)(F)C1 [Example 117, ((R)-2-(benzofuran-3-yl)-1-(((((R)-1-(2-cyano-4-(3,3-difluoropyrrolidin-1-yl)-4-methylpent-2-enoyl)-2-methylpyrrolidin-2-yl)methoxy)carbonyl)amino)ethyl)boronic acid]
1.5	570	CC(C)(C)C[C@H](NC(=O)OC[C@@]1(C)CCCN1C(=O)C(C#N)=CC(C)(C)N1CCC(F)(F)C1)B(O)O [Example 118, ((R)-1-(((((R)-1-(2-cyano-4-(3,3-difluoropyrrolidin-1-yl)-4-methylpent-2-enoyl)-2-methylpyrrolidin-2-yl)methoxy)carbonyl)amino)-3,3-dimethylbutyl)boronic acid]
1.9	1750	C=C(F)C(=O)N1CCC[C@]1(C)COC(=O)N[C@@H](Cc1ccc(F)cc1)B(O)O [Example 121, ((R)-1-(((((R)-1-(2-fluoroacryloyl)-2-methylpyrrolidin-2-yl)methoxy)carbonyl)amino)-2-(4-fluorophenyl)ethyl)boronic acid]
1.5	4180	CC(C)(C=C(C#N)C(=O)N1CCCC[C@@H]1COC(=O)N[C@@H](Cc1ccc(C#N)cc1)B(O)O)N1CCC(F)(F)C1 [Example 122, ((R)-1-(((((R)-1-(2-cyano-4-(3,3-difluoropyrrolidin-1-yl)-4-methylpent-2-enoyl)piperidin-2-yl)methoxy)carbonyl)amino)-2-(4-cyanophenyl)ethyl)boronic acid]
